Data: the NIST ThermoML archive (doi:10.1021/je7001946)

Experiment: mn = molality of the nth substance listed, in mol/kg
Details: 101.3 kPa, Liquid; for speed of sound: Pulse-echo method

[Br][Co][Br] [cobalt(II) bromide] + CC#N
Details	mass density, 288.15 K [kg/m3]	mass density, 293.15 K [kg/m3]	mass density, 298.15 K [kg/m3]	mass density, 303.15 K [kg/m3]	mass density, 308.15 K [kg/m3]	mass density, 313.15 K [kg/m3]	mass density, 323.15 K [kg/m3]	speed of sound, 298.15 K [m/s]
m1 = 0.06384	797.529	792.118	786.677	781.218	775.72	770.192	759.026	–
m1 = 0.08092	800.3	794.88	789.432	783.966	778.458	772.92	761.738	–
m1 = 0.09698	802.926	797.495	792.044	786.563	781.049	775.5	764.302	1277
m1 = 0.1125	805.465	800.033	794.565	789.08	783.57	778.02	766.801	–
m1 = 0.1286	808.142	802.7	797.232	791.742	786.222	780.656	769.421	1276
m1 = 0.1428	810.505	805.061	799.583	794.089	788.55	782.985	771.734	–
m1 = 0.1587	813.161	807.703	802.224	796.713	791.168	785.595	774.335	1275.3
m1 = 0.19	818.466	812.988	807.489	801.964	796.411	790.822	779.533	1274.6
m1 = 0.2204	823.615	818.13	812.623	807.083	801.513	795.917	784.593	1273.9
m1 = 0.2527	829.214	823.715	818.194	812.642	807.057	801.45	790.088	–
m1 = 0.2636	831.14	825.637	820.113	814.557	808.967	803.34	791.988	1273.2
m1 = 0.2777	833.591	828.085	822.557	816.995	811.404	805.778	794.405	–
m1 = 0.3089	839.134	833.612	828.072	822.494	816.889	811.253	799.854	1272.1

[Br-].[Br-].[Mn+2] [manganese(II) bromide] + CC#N
Details	mass density, 288.15 K [kg/m3]	mass density, 293.15 K [kg/m3]	mass density, 298.15 K [kg/m3]	mass density, 303.15 K [kg/m3]	mass density, 308.15 K [kg/m3]	mass density, 313.15 K [kg/m3]	mass density, 323.15 K [kg/m3]	speed of sound, 298.15 K [m/s]
m1 = 0.0415	793.652	788.26	782.85	777.408	771.942	766.441	755.33	–
m1 = 0.0513	795.156	789.764	784.353	778.907	773.433	767.926	756.805	–
m1 = 0.06115	796.676	791.28	785.862	780.415	774.941	769.432	758.311	1277.2
m1 = 0.07131	798.243	792.85	787.428	781.978	776.494	770.984	759.855	–
m1 = 0.08138	799.819	794.414	788.989	783.537	778.054	772.539	761.403	1276.9
m1 = 0.09054	801.238	795.84	790.408	784.953	779.461	773.94	762.804	–
m1 = 0.1006	802.824	797.413	791.982	786.518	781.03	775.513	764.368	1276.7
m1 = 0.1214	806.091	800.671	795.23	789.765	784.269	778.744	767.585	–
m1 = 0.1406	809.125	803.696	798.249	792.776	787.272	781.741	770.567	1276.1
m1 = 0.1603	812.287	806.853	801.398	795.916	790.407	784.868	773.687	–
m1 = 0.1712	814.024	808.58	803.121	797.634	792.128	786.584	775.396	1275.7
m1 = 0.1804	815.501	810.054	804.59	799.11	793.589	788.041	776.847	–
m1 = 0.1995	818.585	813.117	807.642	802.149	796.622	791.065	779.856	1275.3

[Br-].[Br-].[Zn+2] [zinc bromide] + CC#N
Details	mass density, 288.15 K [kg/m3]	mass density, 293.15 K [kg/m3]	mass density, 298.15 K [kg/m3]	mass density, 303.15 K [kg/m3]	mass density, 308.15 K [kg/m3]	mass density, 313.15 K [kg/m3]	mass density, 323.15 K [kg/m3]	speed of sound, 298.15 K [m/s]
m1 = 0.02964	–	–	–	–	–	–	–	1277.1
m1 = 0.03209	792.171	786.781	781.365	775.922	770.453	764.95	753.836	–
m1 = 0.0404	793.435	788.04	782.622	777.179	771.701	766.197	755.075	–
m1 = 0.04717	794.467	789.072	783.65	778.202	772.724	767.215	756.09	1276.4
m1 = 0.05609	795.839	790.436	785.044	779.559	774.08	768.567	757.437	–
m1 = 0.06324	796.938	791.534	786.108	780.651	775.17	769.655	758.516	1275.7
m1 = 0.07124	798.167	792.766	787.332	781.876	776.393	770.874	759.73	–
m1 = 0.07952	799.446	794.033	788.597	783.143	777.651	772.126	760.98	1275.1
m1 = 0.09524	801.876	796.466	791.02	785.546	780.047	774.52	763.359	–
m1 = 0.1099	804.162	798.743	793.295	787.86	782.357	776.822	765.649	1273.6
m1 = 0.1252	806.567	801.138	795.677	790.202	784.687	779.149	767.969	–
m1 = 0.1317	807.593	802.157	796.698	791.221	785.702	780.162	768.971	1272.5
m1 = 0.1402	808.922	803.487	798.026	792.539	787.024	781.476	770.273	–
m1 = 0.1554	–	–	–	–	–	–	–	1271.2
